These results are taken from US8637058B2, “Compositions based on cupric salts, cupric salts and their use for controlling phytopathogens” (priority 2001, dated 2014).

The test concerns isolated portion of the phytopathogen with a reduced sensitivity (Plasmopara viticola). The test can be described thus: Control of Plasmopara viticola on grapes, preventive leaf application (greenhouse test), isolate with reduced sensitivity. The format is in vivo. The conditions noted are these: fungicide alone at 0.05 ppm, scale 100 to 0. On the procedure:
Efficacy of Compound Nr. 1 Mixed with Another Fungicidal Compound in the Control of Plasmopara viticola on Grapes in Preventive Leaf Application (Greenhouse Test) Table 3.
Leaves of cultivar Dolcetto grape vines, cultivated in vases, in a conditioned environment (20±1° C., 70% relative humidity) are treated by spraying both sides of the leaves with compound Nr. 1 mixed with another fungicide dispersed in a hydroacetone solution at 10% by volume of acetone containing 0.3% of tween 20.
After remaining 24 hours in a conditioned environment, the plants are infected on the lower side with an aqueous suspension of spores of Plasmopara viticola (200,000 spores per cm^3).
The plants are kept in a humidity saturated environment, at 21° C., for the incubation period of the fungus and, at the end of this period (7 days), the fungicidal activity is evaluated according to a percentage evaluation scale from 100 (healthy plant) to 0 (completely infected plant).
From the data indicated in Table 3, the synergic effect of the mixtures, consisting of compound Nr. […]
When the fungicidal activity experimentally evaluated is greater than the value of E, this activity should be considered as a synergic effect.

`COCC(=O)N(c1c(C)cccc1C)C(C)C(=O)OC` (stereo not shown) [Metalaxyl, metalaxyl]: the “Activity (y)” value turned out to be 12.
